In patent US20260335453A1, “ISOINDOLINONE-GLUTARIMIDE ANTIBODY CONJUGATES, AND USES THEREOF” (FIREFLY BIO, INC., priority 2023, published 2026):

Assays:
SKBR3 cells [1] = experiment: Cell proliferation (Cell Titer Glow), SKBR3; type: cell-based; conditions: Homo sapiens, SK-BR-3; IG compounds, cell killing, 72 h
Method: (§1) Exemplary isoindolinone-glutarimide (IG) compounds of Table 1a, 1b and 1c were prepared and characterized according to the Examples herein. Certain exemplary IG compounds of(Table 1a were tested for their effects in inhibiting cellular proliferation, including CAL1 WSU-DLCL2, NCI-N87 and SKBR3. CAL51 is a human breast adenocarcinoma cell line with triple-negative status for expression of estrogen, progesterone and HER2 receptors. WSU-DLCL2 is a human B-Cell non-Hodgkin lymphoma cell line that expresses high levels of CD22. NCI-N87 is a human epithelial cell line established from a gastric carcinoma; SKBR3 is a human epithelial cell line established from a breast adenocarcinoma; both NCI-N87 and SKBR3 cell lines express high levels of HER2 receptor. […]
(§2) One day prior to treatment with compounds or IGAC, cells were plated in white 96-well plates (SKBR: 3000 cells/well; CAL-51: 4000 cells/well). Compounds or ADCs were added in a serial-dilution manner reaching the indicated concentrations. Plates were incubated at 37 degrees for 96h (ADCs) or 72h (compounds) whereafter a 1:10 dilution of Cell Titer Glow was used to measure relative cell numbers after 10 min of incubation at room temperature.

NCI-N87 cells = experiment: Cell proliferation (Cell Titer Glow), NCI-N87; type: cell-based; conditions: Homo sapiens, IG compounds, cell killing, 72 h
Method: (§3) Exemplary isoindolinone-glutarimide (IG) compounds of Table 1a, 1b and 1c were prepared and characterized according to the Examples herein. Certain exemplary IG compounds of(Table 1a were tested for their effects in inhibiting cellular proliferation, including CAL1 WSU-DLCL2, NCI-N87 and SKBR3. CAL51 is a human breast adenocarcinoma cell line with triple-negative status for expression of estrogen, progesterone and HER2 receptors. WSU-DLCL2 is a human B-Cell non-Hodgkin lymphoma cell line that expresses high levels of CD22. NCI-N87 is a human epithelial cell line established from a gastric carcinoma; SKBR3 is a human epithelial cell line established from a breast adenocarcinoma; both NCI-N87 and SKBR3 cell lines express high levels of HER2 receptor.
(§4) Exemplary embodiments of the isoindolinone-glutarimide antibody conjugates (IGAC) of Formula I are compiled in Table 3. Assessment of IGAC biological activity and other properties may be conducted according to the methods of Example 102. In some instances, the Cell proliferation dose response IC50 value is an average of repetitive assays. Certain exemplary IGAC were tested for their effects in inhibiting cellular proliferation, including CAL51; WSU-DLCL2, NCI-N87 and SKBR3 cell lines. CAL51 is a human breast adenocarcinoma cell line with triple-negative status for expression of estrogen, progesterone and HER2 receptors. WSU-DLCL2 is a human B-Cell non-Hodgkin lymphoma cell line that expresses high levels of CD22. NCI-N87 is a human epithelial cell line established from a gastric carcinoma; SKBR3 is a human epithelial cell line established from a breast adenocarcinoma; both NCI-N87 and SKBR3 cell lines express high levels of HER2 receptor.
One day prior to treatment with compounds or IGAC, cells were plated in white 96-well plates (SKBR: 3000 cells/well; CAL-51: 4000 cells/well). Compounds or ADCs were added in a serial-dilution manner reaching the indicated concentrations. […]

CAL51 cells [2] = experiment: Degradation assay evaluated by immunofluorescence staining, CAL51; type: cell-based, human; conditions: Homo sapiens, CAL-51, CAL51, 6 h
Method: (§5) One day prior to treatment with compounds, black 96 well plates were coated with fibronectin (0.2 μg/ml in PBS) for 45 min at room temperature and subsequently washed with PBS. CAL-51 or SKBR3 cells were seeded at 30K cells/well (1001) and incubated overnight at 37° C. whereafter compounds were added reaching indicated concentrations. 6 h after treatment the medium was removed, cells were washed with PBS and fixed with 10% formalin for 20 mins at room temperature. Following two PBS washes (150 μl), cells were permeabilized in 0.1% Triton X-100 in PBS for 8 mins at room temperature and subsequently washed again twice with PBS. Cells were blocked thereafter with 1% BSA in PBS for 45 mins. Primary antibody was diluted in blocking buffer and incubated with the cells overnight at 4° C. After three washes with PBS, cells were incubated with secondary antibody for 1 h at RT, washed and subsequently images were taken on an Operetta High-Content Imager.
(§6) For the determination of the DC50, a custom algorithm implemented in the PerkinElmer image analysis software Harmony-Acapella® was used.

WSU-DLCL2 cells = experiment: Cell proliferation (Cell Titer Glow), WSU-DLCL2; type: cell-based; conditions: Homo sapiens, WSUDLCL2; IG compounds, cell killing, 72 h
Method: as §3, §4
On the day of treatment, 10,000 suspension cells/well were plated in white 96-well plates. Compounds or ADCs were added in a serial-dilution manner reaching the indicated concentrations. Plates were incubated at 37 degrees for 72 h whereafter a 1:10 dilution of Cell Titer Glow was used to measure relative cell numbers after 10 min of incubation at room temperature.

CAL51 cells [3] = experiment: Cell proliferation (Cell Titer Glow), CAL51; type: cell-based; conditions: Homo sapiens, CAL-51; IG compounds, cell killing, 72 h
Method: as §1, §2

SKBR3 cells [4] = experiment: Degradation assay evaluated by immunofluorescence staining, SKBR3; type: cell-based; conditions: Homo sapiens, SK-BR-3, SKBR3, 6 h
Method: as §5, §6

DC50 (CAL51 cells [2]) [nM] | DC50 (SKBR3 cells [4]) [nM] | Compound | IC50 (SKBR3 cells [1]) [nM] | IC50 (NCI-N87 cells) [nM] | Dmax (CAL51 cells [2]) [%] | IC50 (WSU-DLCL2 cells) [nM] | IC50 (CAL51 cells [3]) [nM] | Dmax (SKBR3 cells [4]) [%]
3.24 ± 2.18 | < 0.7 | Cc1ccc(NC(=O)NCc2ccc3c(c2)CN(C2CCC(=O)NC2=O)C3=O)cc1Cl (centres unmarked) [IG-1, 1-(3-chloro-4-methyl-phenyl)-3-[[2-(2,6-dioxo-3-piperidyl)-1-oxo-isoindolin-5-yl]methyl]urea] | 1.77 | 1.48 | 101 ± 4.45 | 1.23 | 10.8 | 95.5 ± 4.9
< 5.41 | 2 | O=C1CCC(N2Cc3c(ccc(CNC(=O)Nc4cccc(C5(C(F)(F)F)CC5)c4)c3O)C2=O)C(=O)N1 (centres unmarked) [IG-42, 1-((2-(2,6-dioxopiperidin-3-yl)-4-hydroxy-1-oxoisoindolin-5-yl)methyl)-3-(3-(1-(trifluoromethyl)cyclopropyl)phenyl)urea] | 2.73 | 2.57 | 96.1 ± 5.89 | 1.43 | 25 | 88.6
6.21 | < 0.645 | Cc1ccc(NC(=O)NCc2ccc3c(c2O)CN(C2CCC(=O)NC2=O)C3=O)cc1C(C)C (centres unmarked) [IG-50] | 1.38 | 1.63 | 105 | 0.75 |  | 99.6 ± 0.614
